The values below come from article PMC3118939 (Chemical research in toxicology, 2011).

Series [1] has as its system human hepatocytes. In words: 4-ABP- and HAA-DNA adduct formation in freshly cultured human hepatocytes. Particulars: carcinogen 10 μM, 24 h incubation.
Another series relates to rat hepatocytes. Particulars: cited from earlier work; for extent of metabolism in rat hepatocytes: even after 24 h; for N-oxidation products as share of the dose: rat hepatocytes.
A further series has as its system P450 1A2. Particulars: human versus rat P450 1A2; cited from earlier work.
In series [2] the test system is hypoxanthine phosphoribosyl transferase (hprt) gene of Chinese hamster ovary cells (CHO). The format is cell-based. Particulars: estimated from ref 53, 69-71.
The subject of series [3] is human hepatocytes. Particulars: cited from earlier work; for dose metabolized in human hepatocyte preparations: 10 μM dose; for dose that underwent metabolism: human hepatocytes, 10 μM, after 24 h incubation, previous studies.
In a further series the test system is CDF1 mice. Particulars: cited from earlier work.
The test system of another series is rat. Particulars: rat model; cited from earlier work.
The subject of a further series is colon of C57BL/6 mice. Particulars: cited from earlier work.
Series [4] deals with colon of C57BL/6 mice (Big Blue mouse). Particulars: cited from earlier work.
The test system of series [5] is human hepatocytes. In words: 4-ABP and HAA biotransformation in human hepatocytes. Particulars: PhIP 10 μM in human hepatocytes. Format: in vitro ADME.
The subject of the next series is rodents. Particulars: cited from earlier work.

Like-named read-outs stand apart in the source and are kept apart here.

In the case of `Nc1nc2c(nc(Nc3ccc4c(n3)[nH]c3ccccc34)n2[C@H]2C[C@H](O)[C@@H](CO)O2)c(=O)[nH]1` [dG-C8-AαC, N-(Deoxyguanosin-8-yl)-AαC], the “DNA adduct formation, Adducts per 10^7 Bases” value with human hepatocytes [1] (human hepatocytes donor HH B) is 32.5 ± 1.8 Adducts per 10^7 Bases; in the series with human hepatocytes [1] (human hepatocytes donor HH C), 44.4 ± 5.6 Adducts per 10^7 Bases; in the series on human hepatocytes [1] (human hepatocytes donor HH D) it was 109 ± 6.4 Adducts per 10^7 Bases; in the series with human hepatocytes [1] (human hepatocytes donor HH F), 72.0 ± 5.9 Adducts per 10^7 Bases; with human hepatocytes [1] (human hepatocytes donor HH G) it was 82.0 ± 15.4 Adducts per 10^7 Bases; in the series on human hepatocytes [1] (human hepatocytes donor HH H), 31.4 ± 3.3 Adducts per 10^7 Bases.

Regarding `Cc1cnc2ccc3c(nc(N)n3C)c2n1` [MeIQx, 2-amino-3,8-dimethylimidazo[4,5-f]quinoxaline], in the series on rat hepatocytes, the “extent of metabolism in rat hepatocytes” value is listed as “poorly metabolized” and the “N-oxidation products as share of the dose” value is recorded as “less than 2%”. Moreover, in the series on P450 1A2, the “catalytic efficiency of N-oxidation, human P450 1A2 superior to rat P450 1A2” value was 11 fold. For the same compound, the “hprt mutants induced by one dG-C8 adduct per 10^7 bases in the CHO genome” value in [2] (dose concentration 1.5 μM) is “about 1.5 hprt mutants per one million c”. In addition, in the series on human hepatocytes [3], the “dose metabolized in human hepatocyte preparations” value is recorded as more than 75% and the “dose that underwent metabolism” value is “up to 97%”.

`Nc1ccc2c(n1)[nH]c1ccccc12` [AαC, 2-amino-9H-pyrido[2,3-b]indole]: in the series on CDF1 mice, the tumor induction entry was “causes liver and blood vessel tumors”. Also, the hepatocarcinogenicity result in the series on rat is “not a hepatocarcinogen”. The aberrant crypt foci result in the series with colon of C57BL/6 mice is “induces aberrant crypt foci”. In addition, the lacI transgene mutagenicity result in [4] is recorded as “potent lacI transgene mutagen”. The “hprt mutants induced by one dG-C8 adduct per 10^7 bases in the CHO genome” value in series [2] (dose concentration 1.5 μM) is ~2.5 hprt mutants per one million c.

As for `Cc1cnc2ccc3c(nc(Nc4nc5c(=O)[nH]c(N)nc5n4[C@H]4C[C@H](O)[C@@H](CO)O4)n3C)c2n1` [dG-C8-MeIQx, N-(deoxyguanosin-8-yl)-MeIQx], the “DNA adduct formation, Adducts per 10^7 Bases” value with human hepatocytes [1] (human hepatocytes donor HH A) was 3.4 ± 0.3 Adducts per 10^7 Bases; in the series on human hepatocytes [1] (human hepatocytes donor HH B), 12.4 ± 0.6 Adducts per 10^7 Bases; in the series with human hepatocytes [1] (human hepatocytes donor HH C) it was 13.9 ± 0.2 Adducts per 10^7 Bases; in the series on human hepatocytes [1] (human hepatocytes donor HH D), 12.2 ± 3.5 Adducts per 10^7 Bases; with human hepatocytes [1] (human hepatocytes donor HH F), 19.0 ± 1.9 Adducts per 10^7 Bases; in the series with human hepatocytes [1] (human hepatocytes donor HH G), 16.1 ± 1.0 Adducts per 10^7 Bases. The “DNA adduct formation, Adducts per 10^7 Bases” value with human hepatocytes [1] (human hepatocytes donor HH H) turned out to be 5.1 ± 0.1 Adducts per 10^7 Bases.

As to `Cn1c(Nc2nc3c(=O)[nH]c(N)nc3n2[C@H]2C[C@H](O)[C@@H](CO)O2)nc2c3cccnc3ccc21` [dG-C8-IQ, N-(deoxyguanosin-8-yl)-IQ], the “DNA adduct formation, Adducts per 10^7 Bases” value in the series on human hepatocytes [1] (human hepatocytes donor HH A) is on record as 9.8 ± 1.1 Adducts per 10^7 Bases; in the series on human hepatocytes [1] (human hepatocytes donor HH B) it was 10.3 ± 0.6 Adducts per 10^7 Bases; with human hepatocytes [1] (human hepatocytes donor HH C) it was 18.3 ± 0.8 Adducts per 10^7 Bases; with human hepatocytes [1] (human hepatocytes donor HH D), 26.2 ± 1.9 Adducts per 10^7 Bases; in the series with human hepatocytes [1] (human hepatocytes donor HH G), 13.5 ± 1.5 Adducts per 10^7 Bases; with human hepatocytes [1] (human hepatocytes donor HH H), 7.0 ± 2.2 Adducts per 10^7 Bases.

As for `Cn1c(Nc2nc3c(=O)[nH]c(N)nc3n2[C@H]2C[C@H](O)[C@@H](CO)O2)nc2ncc(-c3ccccc3)cc21` [dG-C8-PhIP, N-(deoxyguanosin-8-yl)-PhIP], the “DNA adduct formation, Adducts per 10^7 Bases” value with human hepatocytes [1] (human hepatocytes donor HH A) is recorded as 13.4 ± 1.7 Adducts per 10^7 Bases; in the series with human hepatocytes [1] (human hepatocytes donor HH B), 22.0 Adducts per 10^7 Bases; in the series on human hepatocytes [1] (human hepatocytes donor HH C), 7.5 ± 1.6 Adducts per 10^7 Bases; with human hepatocytes [1] (human hepatocytes donor HH D) it was 7.7 ± 1.0 Adducts per 10^7 Bases; with human hepatocytes [1] (human hepatocytes donor HH F), 14.0 ± 0.6 Adducts per 10^7 Bases; with human hepatocytes [1] (human hepatocytes donor HH G), 30.6 ± 2.4 Adducts per 10^7 Bases. For the same compound, the “DNA adduct formation, Adducts per 10^7 Bases” value with human hepatocytes [1] (human hepatocytes donor HH H) came out at 6.0 ± 1.0 Adducts per 10^7 Bases.

`Cn1c(N)nc2ncc(-c3ccccc3)cc21` [PhIP, 2-amino-1-methyl-6-phenylimidazo[4,5-b]pyridine]: in the series on rat hepatocytes, the “extent of metabolism in rat hepatocytes” value is on record as “poorly metabolized” and the “N-oxidation products as share of the dose” value was “less than 2%”. Moreover, the “catalytic efficiency of N-oxidation, human P450 1A2 superior to rat P450 1A2” value in the series with P450 1A2 is on record as 19 fold. Further, in series [2] (dose concentration 1.2 μM), the “hprt mutants induced by one dG-C8 adduct per 10^7 bases in the CHO genome” value was ~2.8 hprt mutants per one million c. In the series on human hepatocytes [3], the “dose metabolized in human hepatocyte preparations” value is reported as more than 75% and the “dose that underwent metabolism” value is reported as “up to 97%”.

Regarding `Nc1nc2c(nc(Nc3ccc(-c4ccccc4)cc3)n2[C@H]2C[C@H](O)[C@@H](CO)O2)c(=O)[nH]1` [dG-C8-4-ABP, N-(Deoxyguanosin-8-yl)-4-aminobiphenyl], the “DNA adduct formation, Adducts per 10^7 Bases” value in the series with human hepatocytes [1] (human hepatocytes donor HH B) worked out at 150 Adducts per 10^7 Bases; with human hepatocytes [1] (human hepatocytes donor HH C), 38.8 ± 4.8 Adducts per 10^7 Bases; in the series with human hepatocytes [1] (human hepatocytes donor HH D), 100 Adducts per 10^7 Bases; in the series on human hepatocytes [1] (human hepatocytes donor HH F), 49.0 ± 1.7 Adducts per 10^7 Bases; with human hepatocytes [1] (human hepatocytes donor HH G), 87.9 ± 8.3 Adducts per 10^7 Bases; in the series on human hepatocytes [1] (human hepatocytes donor HH H) it was 70.0 ± 5.8 Adducts per 10^7 Bases.

`Cn1c(=NO)n([C@@H]2O[C@H](C(=O)O)[C@@H](O)[C@H](O)[C@H]2O)c2ncc(-c3ccccc3)cc21` [HONH-N3-PhIP]: the “level of metabolite formed, lower than HON-PhIP-N^2-Gl” value in the series with human hepatocytes [5] is reported as ~ 10 fold.

As for `Nc1ccc(-c2ccccc2)cc1` [4-ABP, 4-aminobiphenyl], the cancer induction entry in the series on rodents is “induces cancer of the urinary bladder, liver, and mammary gland”. In [2] (dose concentration 2 μM), the “hprt mutants induced by one dG-C8 adduct per 10^7 bases in the CHO genome” value is listed as ~ 0.7 hprt mutants per one million c.
